According to the supplement of paper PMC10307832:

Assays:
Assay in all cases: relative viability (nuclei count vs DMSO), 5 days (fraction); higher = more cells survive
[1] = compound: CC1=NN=C(O1)C2=NN=C(C=C2)N3CCC(CC3)OC4=C(C=CC(=C4)F)Cl + O=C(CCCCCCC(=O)Nc1ccccc1)NO [Vorinostat] (partner 1 µM)
How it was run: (§1)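 Lung cancer cell lines in 1536-well plates were dosed by pin tool the day after seeding, either with one drug alone or with a fixed anchor-drug dose plus five library-drug doses (not always all listed) in √10 steps. After 5 days, cells were fixed and their nuclei stained in one step (final 0.05% Triton X-100, 1% formaldehyde, 1 ug/ml Hoechst), then counted on 4× images. Relative viability is the nuclei count in treated wells divided by that in vehicle wells. Values are medians of duplicate plates.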

[2] = compound: CC(C)C[C@@H](C(=O)N[C@H](C(=O)OC1CCCC1)c1ccccc1)[C@H](O)C(=O)NO [Tosedostat] + O=C(c1cc(Cc2n[nH]c(=O)c3ccccc23)ccc1F)N1CCN(C(=O)C2CC2)CC1 [Olaparib] (partner 8 µM)
How it was run: as §1

[3] = compound: CC(C)C[C@@H](C(=O)N[C@H](C(=O)OC1CCCC1)c1ccccc1)[C@H](O)C(=O)NO [Tosedostat] + Nc1nc2[nH]cc(CCc3ccc(C(=O)N[C@@H](CCC(=O)O)C(=O)O)cc3)c2c(=O)[nH]1 [Pemetrexed] (partner 0.2 µM)
How it was run: as §1

[4] = compound: CC1=NN=C(O1)C2=NN=C(C=C2)N3CCC(CC3)OC4=C(C=CC(=C4)F)Cl + CS(=O)(=O)N1CCN(Cc2cc3nc(-c4cccc5[nH]ncc45)nc(N4CCOCC4)c3s2)CC1 [Pictilisib] (partner 1 µM)
How it was run: as §1

Cell Line	relative viability ([1]; first compound 0.253 µM)	relative viability ([1]; first compound 0.8 µM)	relative viability ([1]; first compound 2.53 µM)	relative viability ([1]; first compound 8 µM)	relative viability ([2]; first compound 0.02 µM)	relative viability ([2]; first compound 0.06325 µM)	relative viability ([2]; first compound 0.2 µM)	relative viability ([2]; first compound 0.6325 µM)	relative viability ([2]; first compound 2 µM)	relative viability ([3]; first compound 0.02 µM)	relative viability ([3]; first compound 0.06325 µM)	relative viability ([3]; first compound 0.2 µM)	relative viability ([3]; first compound 0.6325 µM)	relative viability ([3]; first compound 2 µM)	relative viability ([4]; first compound 0.253 µM)	relative viability ([4]; first compound 0.8 µM)	relative viability ([4]; first compound 2.53 µM)	relative viability ([4]; first compound 8 µM)
NCI-H661	0.802	0.745	0.702	0.629	0.814	0.723	0.75	0.72	0.724	0.959	0.9	0.97	0.984	0.994	0.386	0.367	0.376	0.366
NCI-H838	0.583	0.599	0.607	0.623	0.839	0.716	0.735	0.739	0.729	0.275	0.254	0.255	0.299	0.29	0.422	0.459	0.442	0.416
NCI-H1355	0.405	0.478	0.625	0.558	0.731	0.662	0.649	0.587	0.607	1.03	1.05	1.14	0.952	0.916			0.453	0.374
NCI-H1395	0.656	0.563	0.671	0.593	0.461	0.463	0.469	0.412	0.402	1.04	1.04	0.848	0.927	0.725	0.565	0.597	0.567	0.549
NCI-H1437	0.492	0.491	0.523	0.376	0.641	0.615	0.659	0.596	0.604	0.297	0.353	0.335	0.354	0.391	0.556	0.426	0.447	0.386
NCI-H1650	0.323	0.289	0.37	0.333	0.768	0.732	0.754	0.515	0.594	0.416	0.392	0.413	0.475	0.526		0.588	0.554	0.561
NCI-H1651	0.431	0.241	0.389	0.336	0.201	0.203	0.168	0.156	0.141	0.586	0.637	0.555	0.711	0.623	0.506	0.665	0.524	0.417
NCI-H1666	0.735	0.862	0.868	0.864	0.726	0.732	0.72	0.638	0.777	0.888	0.831	0.88	0.991	0.963	0.276	0.414	0.456	0.313
